Measured values reported in the supplement of paper PMC10307832.

Columns and labels:
Experiment in all cases: relative viability (nuclei count vs DMSO), 5 days (fraction); higher = more cells survive
[1] = compound: CC1=CC(=NN1)NC2=CC(=NC(=N2)/C=C/C3=CC=CC=C3)N4CCN(CC4)C + N=C(N)NC(=N)NCCc1ccccc1 [Phenformin] (partner 250 µM)
Summary of the method: (§1)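 Lung cancer cell lines were pin-tool dosed in 1536-well plates on the day after seeding, with either a lone drug or a fixed anchor-drug dose plus five library-drug doses (not always all listed) in √10 steps. Nuclei were counted on 4× images after 5 days. Relative viability is the ratio of treated-well to vehicle-well nuclei counts, with each value a median of duplicate plates.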

[2] = compound: CC1=CC(=NN1)NC2=CC(=NC(=N2)/C=C/C3=CC=CC=C3)N4CCN(CC4)C + Nc1nc2[nH]cc(CCc3ccc(C(=O)N[C@@H](CCC(=O)O)C(=O)O)cc3)c2c(=O)[nH]1 [Pemetrexed] (partner 0.2 µM)
Summary of the method: as §1

[3] = compound: CC1=CC(=NN1)NC2=CC(=NC(=N2)/C=C/C3=CC=CC=C3)N4CCN(CC4)C + O=C(CCCCCCC(=O)Nc1ccccc1)NO [Vorinostat] (partner 1 µM)
Summary of the method: as §1

Obatoclax + Palbociclib = compound: COC1=CC(c2cc3ccccc3[nH]2)=N/C1=C\c1[nH]c(C)cc1C [Obatoclax] + CC(=O)c1c(C)c2cnc(Nc3ccc(N4CCNCC4)cn3)nc2n(C2CCCC2)c1=O [Palbociclib] (partner 0.5 µM)
Summary of the method: as §1

| Cell Line | relative viability ([1]; first compound 0.08 µM) | relative viability ([1]; first compound 0.253 µM) | relative viability ([1]; first compound 0.8 µM) | relative viability ([1]; first compound 2.53 µM) | relative viability ([1]; first compound 8 µM) | relative viability ([2]; first compound 0.08 µM) | relative viability ([2]; first compound 0.253 µM) | relative viability ([2]; first compound 0.8 µM) | relative viability ([2]; first compound 2.53 µM) | relative viability ([2]; first compound 8 µM) | relative viability ([3]; first compound 0.08 µM) | relative viability ([3]; first compound 0.253 µM) | relative viability ([3]; first compound 0.8 µM) | relative viability ([3]; first compound 2.53 µM) | relative viability ([3]; first compound 8 µM) | relative viability (Obatoclax + Palbociclib; first compound 0.01 µM) | relative viability (Obatoclax + Palbociclib; first compound 0.03162 µM) | relative viability (Obatoclax + Palbociclib; first compound 0.1 µM) | relative viability (Obatoclax + Palbociclib; first compound 0.3162 µM) | relative viability (Obatoclax + Palbociclib; first compound 1 µM) |
| --- | --- | --- | --- | --- | --- | --- | --- | --- | --- | --- | --- | --- | --- | --- | --- | --- | --- | --- | --- | --- |
| NCI-H838 | 0.567 | 0.583 | 0.462 | 0.123 | 0.107 | 0.235 | 0.25 | 0.213 | 0.166 | 0.111 | 0.726 | 0.729 | 0.394 | 0.146 | 0.117 | 0.223 | 0.219 | 0.19 | 0.195 | 0.146 |
| NCI-H1355 | 0.484 | 0.423 | 0.435 | 0.26 | 0.148 | 1.04 | 1.01 | 1.01 | 0.902 | 0.546 | 0.639 | 0.599 | 0.622 | 0.273 | 0.104 | 0.398 | 0.391 | 0.371 | 0.387 | 0.369 |
| NCI-H1395 | 0.494 | 0.434 | 0.427 | 0.327 | 0.264 | 0.875 | 0.814 | 0.714 | 0.357 | 0.233 | 0.702 | 0.669 | 0.675 | 0.375 | 0.236 | 0.554 | 0.602 | 0.597 | 0.6 | 0.439 |
| NCI-H1437 | 0.3 | 0.331 | 0.307 | 0.16 | 0.107 | 0.422 | 0.325 | 0.295 | 0.212 | 0.162 | 0.631 | 0.904 | 0.819 | 0.394 | 0.201 | 0.306 | 0.311 | 0.324 | 0.31 | 0.237 |
| NCI-H1650 | 0.418 | 0.404 | 0.464 | 0.106 | 0.0916 | 0.37 | 0.373 | 0.379 | 0.268 | 0.146 | 0.523 | 0.733 | 0.553 | 0.14 | 0.0794 | 0.344 | 0.407 | 0.316 | 0.24 | 0.145 |
| NCI-H1651 | 0.355 | 0.346 | 0.312 | 0.124 | 0.112 | 0.39 | 0.58 | 0.571 | 0.518 | 0.223 | 0.349 | 0.529 | 0.464 | 0.497 | 0.145 | 0.522 | 0.501 | 0.524 | 0.553 | 0.554 |
| NCI-H1666 | 0.62 | 0.556 | 0.542 | 0.391 | 0.302 | 0.735 | 0.914 | 0.839 | 0.846 | 0.792 | 1.05 | 0.992 | 0.926 | 1.12 | 0.802 | 0.593 | 0.692 | 0.659 | 0.638 | 0.592 |
